From publication PMC7180728, “Novel Anthraquinone Compounds Inhibit Colon Cancer Cell Proliferation via the Reactive Oxygen Species/JNK Pathway” (Molecules, 2020)
Converted amounts (≈) assume the structure as drawn. Read-outs that look alike come from different tables or passages of the source. Residues, ends and D or L forms follow the SMILES beside them. *: point of attachment. Cbz = O=C(OCc1ccccc1)*; CH2F = FC*

Columns and labels:
HCT116 = assay: MTT cell proliferation assay, HCT116; assay type: cell-based, human; conditions: for IC50: Homo sapiens, HCT-116, HCT116 colon cancer, 48 h
Experimental: (§1) The effects of the synthesized amide anthraquinone derivatives on the proliferative activity of eight human cancerous cell lines (EC9706, MCF-7, SGC-7901, HepG2, QBC939, HeLa, HCT116 and SW480) in addition to two normal human cell lines (colorectal FHC and liver HL7702) were evaluated using the standard MTT assay.
(§2) The human esophageal cancer cell line EC9706 was obtained from Cancer Hospital and Institute by Prof. Ming Rong Wang, Chinese Academy Medical of Sciences. The human colorectal carcinoma cell lines HCT116 and SW480, hepatoma cell line HepG2, cervical carcinoma cell line HeLa, breast cancer cell line MCF-7, gastric cancer cell line SGC-7901, cholangiocarcinoma cell line QBC939, normal fetal colon cell line FHC and liver cell line HL-7702 were obtained from the Cell Bank of the Shanghai Chinese Academy of Sciences. All cells were cultured in RPMI 1640 medium containing 100 U/mL penicillin and streptomycin and 10% fetal bovine serum and maintained at 37°C under a 5% CO2 atmosphere.
(§3) We analyzed the inhibitory effects of eight anthraquinone-amino acid derivatives on the proliferation of eight tumor cell lines and two normal cell lines in vitro using MTT assays. Cells were added to a 96-well plate with (5,000 cells per well in 100 µL RPMI-1640 medium). Cells were treated with different concentrations (10–100 μg/mL) of 8a–8h for 48 h and then incubated with 20 μL MTT (5 mg/mL) for another 4 h at 37°C. DMSO (150 μL) was then added to each well to dissolve the formazan crystals. The absorbance of each well was read at 490 nm on a microtiter plate ELISA reader. The mean values were obtained from a minimum of three parallel experiments. IC50 values were calculated.

MCF-7 = assay: MTT cell proliferation assay, MCF-7; assay type: cell-based; conditions: Homo sapiens, MCF7, MCF-7 breast cancer, 48 h
Experimental: as §1, §2, §3

EC9708 = assay: MTT cell proliferation assay, EC9706 (Table 1: EC9708); assay type: cell-based; conditions: Homo sapiens, EC9708 esophageal cancer, 48 h
Experimental: as §1, §2, §3

QBC939 = assay: MTT cell proliferation assay, QBC939; assay type: cell-based; conditions: Homo sapiens, QBC939 cholangiocarcinoma, 48 h
Experimental: as §1, §2, §3

SGC-7901 = assay: MTT cell proliferation assay, SGC-7901; assay type: cell-based, human; conditions: SGC-7901 gastric cancer
Experimental: as §1, §2, §3

HeLa = assay: MTT cell proliferation assay, HeLa; assay type: cell-based; conditions: Homo sapiens, HeLa cervical cancer, 48 h
Experimental: as §1, §2, §3

SW480 = assay: MTT cell proliferation assay, SW480; assay type: cell-based; conditions: Homo sapiens, SW480 colon cancer, 48 h
Experimental: as §1, §2, §3

HepG2 = assay: MTT cell proliferation assay, HepG2; assay type: cell-based; conditions: Homo sapiens, HepG2 liver cancer, 48 h
Experimental: as §1, §2, §3

HL-7702 = assay: MTT cell proliferation assay, normal liver cells HL-7702; assay type: cell-based; conditions: L02, HL-7702 normal human hepatocyte, 48 h
Experimental: as §1, §2, §3

FHC = assay: MTT cell proliferation assay, normal colorectal cells FHC; assay type: cell-based; conditions: FHC normal human colorectal mucosa, 48 h
Experimental: as §1, §2, §3

HCT116 cells = assay: MTT cell viability with or without zVAD-FMK; assay type: cell-based, human; conditions: zVAD-FMK 5 mM alone, 24 h
Source text: Caspases represent a key molecular group in the regulation of apoptosis. In caspases, there is an upstream and downstream relationship between the initiator of apoptosis and executioner. Caspase 3 is one of the key executers of apoptosis, as it is either partially or totally responsible for the proteolytic cleavage of many key proteins. For example, when caspase 9 is activated, it activates caspase 3, which ultimately triggers cell apoptosis. After detecting the expression of the corresponding Bcl-2 family proteins after 8a treatment by western blotting, we went on to detect the expression levels of PARP, caspase 9, cleaved caspase 9, caspase 3, and cleaved caspase 3 proteins. […] After 24 h of treatment with zVAD-FMK, cell viability is 93%.
Figure 7 Effect of 8a on apoptosis-related protein expression. […] PARP, caspase 3, cleaved caspase 3, caspase 9, cleaved caspase 9, Bcl-2, phosphorylated Bcl-2, Bcl-XL, phosphorylated Bcl-xL and Bax were detected by western blot analysis; β-actin was used as a loading control in each lane. Representative data of three independent experiments are shown; (C) and (D) Grayscale analysis of the relative expression of apoptosis-related proteins detected by Western blotting. […] (E) Cells were exposed to 8a (20 μg/mL) and/or zVAD-FMK ([…]) for 24 h, and cell viability was measured by MTT assay. […]

[1] = parameters: method as in earlier work; conditions: cell line not given; compared with 8b 27.87 μg/mL; cited from earlier work
[2] = parameters: method as in PMID 27111664, PMID 28811348; conditions: background statement, no own measurement; cited from earlier work
[3] = parameters: method as in PMID 24096626; conditions: on entering the bloodstream; cited from earlier work
[4] = Homo sapiens, SGC-7901, 48 h, read-out: IC50

O=C(O)CNC(=O)c1ccc2c(c1[N+](=O)[O-])C(=O)c1ccccc1C2=O [Compound 8d] showed an IC50 (HCT116) of 27.75 ± 0.11 µg/mL (≈ 78.3 µM), an IC50 (MCF-7) of 26.87 ± 0.06 µg/mL (≈ 75.8 µM) and an IC50 (EC9708) of 41.47 ± 0.14 µg/mL (≈ 117 µM). For the same compound, the IC50 (QBC939) was 36.71 ± 0.04 µg/mL (≈ 104 µM), the IC50 (SGC-7901; [4]) was 60.83 ± 0.12 µg/mL (≈ 172 µM) and the IC50 (HeLa) was 28.7 ± 0.17 µg/mL (≈ 81 µM). For the same compound, the IC50 (SW480) was 43.08 ± 0.05 µg/mL (≈ 122 µM), the IC50 (HepG2) was 40.11 ± 0.02 µg/mL (≈ 113 µM) and the IC50 (HL-7702) was over 1000 µg/mL. It also gave an IC50 (FHC) of over 1000 µg/mL.
In the case of CC(C)C(NC(=O)c1ccc2c(c1[N+](=O)[O-])C(=O)c1ccccc1C2=O)C(=O)O (stereo not shown) [Compound 8b, 1-nitro-2-acyl-anthraquinone valine], the IC50 (HCT116) is reported as 21 ± 0.38 µg/mL (≈ 53 µM), the IC50 (MCF-7) is reported as 30.81 ± 0.05 µg/mL (≈ 77.7 µM) and the IC50 (EC9708) is reported as 38.94 ± 0.02 µg/mL (≈ 98.2 µM). It also gave an IC50 (QBC939) of 72.88 ± 0.16 µg/mL (≈ 184 µM), an IC50 (SGC-7901; [4]) of 67.98 ± 0.18 µg/mL (≈ 172 µM) and an IC50 (HeLa) of 27.87 ± 0.22 µg/mL (≈ 70.3 µM). It also gave an IC50 (SW480) of 42.4 ± 0.68 µg/mL (≈ 107 µM), an IC50 (HepG2) of 44 ± 0.53 µg/mL (≈ 111 µM) and an IC50 (HL-7702) of over 1000 µg/mL. For the same compound, the IC50 (FHC) was over 1000 µg/mL.
COC(=O)C[C@H](NC(=O)[C@H](C)NC(=O)[C@@H](NC(=O)OCc1ccccc1)C(C)C)C(=O)CF [zVAD-FMK, reference compound] (Cbz-Val-Ala-Asp(OMe)-CH2F) showed a cell viability (HCT116 cells) of 93%.
For CC(C)C(NC(=O)c1cc(O)c2c(c1)C(=O)c1cccc(O)c1C2=O)C(=O)O (stereo not shown) [rhein valine], the IC50 [1] is listed as 33.51 µg/mL (≈ 87.4 µM).
For Cc1cc(O)c2c(c1)C(=O)c1cc(O)cc(O)c1C2=O [Emodin, emodin], the water solubility [2] is listed as “poor”.
In the case of CC(NC(=O)c1ccc2c(c1[N+](=O)[O-])C(=O)c1ccccc1C2=O)C(=O)O (stereo not shown) [Compound 8f], the “proliferation of HCT116 cells (in words)” value (HCT116) is reported as “significantly inhibited”, the IC50 (HCT116) is reported as 98.43 ± 0.13 µg/mL (≈ 267 µM) and the IC50 (MCF-7) is reported as 342.19 ± 0.22 µg/mL (≈ 929 µM). For the same compound, the IC50 (EC9708) was 257.31 ± 0.2 µg/mL (≈ 699 µM), the IC50 (QBC939) was 357.52 ± 0.08 µg/mL (≈ 971 µM) and the IC50 (SGC-7901; [4]) was 165.3 ± 0.21 µg/mL (≈ 449 µM). For the same compound, the IC50 (HeLa) was 241.31 ± 0.13 µg/mL (≈ 655 µM), the IC50 (SW480) was 155.38 ± 0.14 µg/mL (≈ 422 µM) and the IC50 (HepG2) was 296.42 ± 0.21 µg/mL (≈ 805 µM). The IC50 (HL-7702) was over 1000 µg/mL and the IC50 (FHC) was over 1000 µg/mL.
In the case of O=C(O)CCC(NC(=O)c1ccc2c(c1[N+](=O)[O-])C(=O)c1ccccc1C2=O)C(=O)O (stereo not shown) [Compound 8h], the “proliferation of HCT116 cells (in words)” value (HCT116) is reported as “significantly inhibited”, the IC50 (HCT116) is reported as 100.38 ± 0.04 µg/mL (≈ 235 µM) and the IC50 (MCF-7) is reported as 546.68 ± 0.31 µg/mL (≈ 1280 µM). It also gave an IC50 (EC9708) of 112.41 ± 0.03 µg/mL (≈ 264 µM), an IC50 (QBC939) of 112.02 ± 0.03 µg/mL (≈ 263 µM) and an IC50 (SGC-7901; [4]) of 200.35 ± 0.05 µg/mL (≈ 470 µM). The IC50 (HeLa) was 334.28 ± 0.04 µg/mL (≈ 784 µM), the IC50 (SW480) was 119.93 ± 0.03 µg/mL (≈ 281 µM) and the IC50 (HepG2) was 467.74 ± 0.06 µg/mL (≈ 1100 µM). The IC50 (HL-7702) was over 1000 µg/mL and the IC50 (FHC) was over 1000 µg/mL.
For O=C1c2c(O)ccc(O)c2C(=O)c2c(NCCNCCO)ccc(NCCNCCO)c21 [MX, mitoxantrone], the “fraction bound to plasma proteins” value [3] is given as over 95%.
With CSCCC(NC(=O)c1ccc2c(c1[N+](=O)[O-])C(=O)c1ccccc1C2=O)C(=O)O (stereo not shown) [Compound 8g] the “proliferation of HCT116 cells (in words)” value (HCT116) was “significantly inhibited”, the IC50 (HCT116) was 86.49 ± 0.02 µg/mL (≈ 202 µM) and the IC50 (MCF-7) was 275.52 ± 0.07 µg/mL (≈ 643 µM). For the same compound, the IC50 (EC9708) was 300.18 ± 0.11 µg/mL (≈ 701 µM), the IC50 (QBC939) was 290.94 ± 0.05 µg/mL (≈ 679 µM) and the IC50 (SGC-7901; [4]) was 235.81 ± 0.02 µg/mL (≈ 550 µM). It also gave an IC50 (HeLa) of 122.52 ± 0.05 µg/mL (≈ 286 µM), an IC50 (SW480) of 158.37 ± 0.04 µg/mL (≈ 370 µM) and an IC50 (HepG2) of 520.52 ± 0.22 µg/mL (≈ 1210 µM). The IC50 (HL-7702) was over 1000 µg/mL and the IC50 (FHC) was over 1000 µg/mL.
Work on O=C1c2ccccc2C(=O)c2c1ccc(C(=O)N1CCCC1C(=O)O)c2[N+](=O)[O-] (stereo not shown) [Compound 8e] yielded an IC50 (HCT116) of 35.03 ± 0.25 µg/mL (≈ 88.8 µM), an IC50 (MCF-7) of 31.31 ± 0.13 µg/mL (≈ 79.4 µM) and an IC50 (EC9708) of 47.35 ± 0.21 µg/mL (≈ 120 µM). For the same compound, the IC50 (QBC939) was 37.73 ± 0.23 µg/mL (≈ 95.7 µM), the IC50 (SGC-7901; [4]) was 60.5 µg/mL (≈ 153 µM) and the IC50 (SGC-7901; 48 h) was 72.31 ± 0.33 µg/mL (≈ 183 µM). For the same compound, the IC50 (HeLa) was 48.82 ± 0.13 µg/mL (≈ 124 µM), the IC50 (SW480) was 60.49 ± 0.07 µg/mL (≈ 153 µM) and the IC50 (HepG2) was 49.07 ± 0.08 µg/mL (≈ 124 µM). For the same compound, the IC50 (HL-7702) was over 1000 µg/mL and the IC50 (FHC) was over 1000 µg/mL.
In the case of O=C1c2ccccc2C(=O)c2c1ccc(C(=O)NC(Cc1ccccc1)C(=O)O)c2[N+](=O)[O-] (stereo not shown) [Compound 8c], the IC50 (HCT116) is reported as 30.12 ± 0.02 µg/mL (≈ 67.8 µM), the IC50 (MCF-7) is reported as 28.26 ± 0.13 µg/mL (≈ 63.6 µM) and the IC50 (EC9708) is reported as 30.24 ± 0.23 µg/mL (≈ 68 µM). The IC50 (QBC939) was 34.2 ± 0.42 µg/mL (≈ 77.1 µM), the IC50 (SGC-7901; [4]) was 61.6 ± 0.14 µg/mL (≈ 139 µM) and the IC50 (HeLa) was 25.94 ± 0.22 µg/mL (≈ 58.4 µM). It also gave an IC50 (SW480) of 39.5 ± 0.31 µg/mL (≈ 88.9 µM), an IC50 (HepG2) of 58.34 ± 0.22 µg/mL (≈ 131 µM) and an IC50 (HL-7702) of over 1000 µg/mL. For the same compound, the IC50 (FHC) was over 1000 µg/mL and the melting point was over 250 °C.
